Assay results: the NIST ThermoML archive (doi:10.1021/je034203p)
Numbers after ± are expanded uncertainties.

Experiments:
[1] = 298.15 K, 101.3 kPa, Liquid; for viscosity: Capillary tube (Ostwald / Ubbelohde) method
[2] = xn = mol fraction of the nth substance listed; details: 298.15 K, 101.3 kPa, Liquid; for viscosity: Capillary tube (Ostwald / Ubbelohde) method

Work on CCC(C)=O [butanone] yielded a mass density [1] of 797.4 ± 0.7 kg/m3 and a viscosity [1] of 0.4011 ± 0.0069 mPa·s.

Compound CCCO [propan-1-ol] has a mass density [1] of 800 ± 0.7 kg/m3 and a viscosity [1] of 1.954 ± 0.017 mPa·s.

In the case of CC(C)O [propan-2-ol], the mass density [1] is reported as 784.3 ± 0.7 kg/m3 and the viscosity [1] is reported as 2.044 ± 0.018 mPa·s.

With CO [methanol] the mass density [1] was 788.1 ± 0.7 kg/m3 and the viscosity [1] was 0.5482 ± 0.0075 mPa·s.

In the case of CCCCO [butan-1-ol], the mass density [1] is reported as 806.3 ± 0.7 kg/m3 and the viscosity [1] is reported as 2.538 ± 0.023 mPa·s.

ClC(Cl)(Cl)Cl [tetrachloromethane] showed a mass density [1] of 1586.1 ± 1.6 kg/m3 and a viscosity [1] of 0.9096 ± 0.0095 mPa·s.

With CCOC(C)=O [ethyl acetate] the mass density [1] was 894 ± 0.6 kg/m3 and the viscosity [1] was 0.4274 ± 0.007 mPa·s.

Compound CCC(C)O (stereo not given) [butan-2-ol] has a mass density [1] of 804.8 ± 0.7 kg/m3 and a viscosity [1] of 3.103 ± 0.028 mPa·s.

In the case of ClC=C(Cl)Cl [trichloroethene], the mass density [1] is reported as 1455.7 ± 1.3 kg/m3 and the viscosity [1] is reported as 0.551 ± 0.0075 mPa·s.

Compound COC(C)=O [methyl ethanoate] has a mass density [1] of 923.9 ± 0.6 kg/m3 and a viscosity [1] of 0.3711 ± 0.0068 mPa·s.

Work on CC(C)=O [acetone] yielded a mass density [1] of 780.8 ± 0.7 kg/m3 and a viscosity [1] of 0.3121 ± 0.0066 mPa·s.

Compound CCO [ethanol] has a mass density [1] of 787.4 ± 0.7 kg/m3 and a viscosity [1] of 1.112 ± 0.011 mPa·s.

Compound c1ccccc1 [benzene] has a mass density [1] of 869.7 ± 0.6 kg/m3 and a viscosity [1] of 0.608 ± 0.0078 mPa·s.

For ClC(Cl)=C(Cl)Cl [tetrachloroethene], the mass density [1] was 1610.2 ± 1.6 kg/m3 and the viscosity [1] was 0.8474 ± 0.0091 mPa·s.

For ClC(Cl)=C(Cl)Cl [tetrachloroethene] + Cc1ccccc1, the viscosity ([2]; x1 = 0.1034) was 0.5799 ± 0.0077 mPa·s, the viscosity ([2]; x1 = 0.2062) was 0.6014 ± 0.0078 mPa·s and the viscosity ([2]; x1 = 0.3079) was 0.6234 ± 0.0079 mPa·s. It also gave a viscosity ([2]; x1 = 0.4093) of 0.6477 ± 0.008 mPa·s, a viscosity ([2]; x1 = 0.5095) of 0.6743 ± 0.0081 mPa·s and a viscosity ([2]; x1 = 0.6092) of 0.7053 ± 0.0083 mPa·s. It also gave a viscosity ([2]; x1 = 0.7083) of 0.7377 ± 0.0085 mPa·s, a viscosity ([2]; x1 = 0.806) of 0.7701 ± 0.0087 mPa·s and a viscosity ([2]; x1 = 0.9038) of 0.8084 ± 0.0089 mPa·s. The viscosity ([2]; x1 = 1) was 0.8474 ± 0.0091 mPa·s, the mass density ([2]; x1 = 0.1034) was 932 ± 0.6 kg/m3 and the mass density ([2]; x1 = 0.2062) was 1004.7 ± 0.6 kg/m3. It also gave a mass density ([2]; x1 = 0.3079) of 1078.4 ± 0.7 kg/m3, a mass density ([2]; x1 = 0.4093) of 1151.3 ± 0.8 kg/m3 and a mass density ([2]; x1 = 0.5095) of 1225.3 ± 0.9 kg/m3. It also gave a mass density ([2]; x1 = 0.6092) of 1300.1 ± 1.1 kg/m3, a mass density ([2]; x1 = 0.7083) of 1376.8 ± 1.2 kg/m3 and a mass density ([2]; x1 = 0.806) of 1451.7 ± 1.3 kg/m3. It also gave a mass density ([2]; x1 = 0.9038) of 1530.1 ± 1.5 kg/m3 and a mass density ([2]; x1 = 1) of 1610.2 ± 1.6 kg/m3.

For Cc1ccccc1 [toluene], the mass density [1] was 860.5 ± 0.6 kg/m3 and the viscosity [1] was 0.5641 ± 0.0076 mPa·s.

ClC(Cl)=C(Cl)Cl [tetrachloroethene] + CCO gave a viscosity ([2]; x1 = 0.0593) of 1.073 ± 0.01 mPa·s, a viscosity ([2]; x1 = 0.1243) of 1.04 ± 0.01 mPa·s and a viscosity ([2]; x1 = 0.1957) of 1.007 ± 0.01 mPa·s. The viscosity ([2]; x1 = 0.2746) was 0.9767 ± 0.0099 mPa·s, the viscosity ([2]; x1 = 0.3619) was 0.9475 ± 0.0097 mPa·s and the viscosity ([2]; x1 = 0.4601) was 0.9189 ± 0.0095 mPa·s. It also gave a viscosity ([2]; x1 = 0.57) of 0.8939 ± 0.0094 mPa·s, a viscosity ([2]; x1 = 0.6944) of 0.8729 ± 0.0093 mPa·s and a viscosity ([2]; x1 = 0.8364) of 0.8551 ± 0.0092 mPa·s. For the same compound, the viscosity ([2]; x1 = 1) was 0.8474 ± 0.0091 mPa·s, the mass density ([2]; x1 = 0.0593) was 868.1 ± 0.6 kg/m3 and the mass density ([2]; x1 = 0.1243) was 949.6 ± 0.6 kg/m3. For the same compound, the mass density ([2]; x1 = 0.1957) was 1029.4 ± 0.6 kg/m3, the mass density ([2]; x1 = 0.2746) was 1111.3 ± 0.7 kg/m3 and the mass density ([2]; x1 = 0.3619) was 1191.8 ± 0.9 kg/m3. The mass density ([2]; x1 = 0.4601) was 1273.7 ± 1 kg/m3, the mass density ([2]; x1 = 0.57) was 1356 ± 1.2 kg/m3 and the mass density ([2]; x1 = 0.6944) was 1440 ± 1.3 kg/m3. It also gave a mass density ([2]; x1 = 0.8364) of 1524.9 ± 1.4 kg/m3 and a mass density ([2]; x1 = 1) of 1610.2 ± 1.6 kg/m3.
